Experimental data published in patent publication US20240254135A1, “POLYPHENOL COMPOUNDS” (Epirium Bio Inc., priority 2022, published 2024).

Biological target: T1, mitochondrial ATP synthase (Mus musculus, UniProt P56480+Q03265)
T1 construct: from tissue; host or cells: mouse heart, isolated mitochondria (fresh or frozen)
Test: ATP hydrolysis (proton release/ECAR, Seahorse XF96) in fresh heart mitochondria
Assay type: biochemical
Settings: for changes in ATP hydrolysis: fresh heart mitochondria (FIG. 1, FIG. 2)
Source text: To assess whether the fraction of synthetic and reverse hydrolytic activities of mitochondrial ATP synthase can be measured in the same preparation, a protocol was developed to monitor changes in oxygen consumption and proton release in response to changes in mitochondrial ATP synthase activity. The proton released and the concomitant changes in the pH can be monitored using the ECAR (extracellular acidification) channel in the Agilent Seahorse XF analyzer using isolated mitochondria, to ensure that the changes in pH cannot be attributed to glycolysis or other contributors to ECAR.
Mice were anesthetized with isoflurane followed by a cervical dislocation, and the heart was immediately removed and placed in ice cold relaxation buffer (5 mM sodium pyrophosphate, 100 mM KCl, 5 mM EGTA, 5 mM HEPES; pH 7.4). The heart was squeezed with tweezers to remove blood, minced with scissors, and then placed in a glass-glass Dounce homogenizer with 3 mL of HES homogenization buffer (250 mM sucrose, 5 mM HEPES, 1 mM EDTA; pH to 7.2, adjusted with KOH). The heart tissue was homogenized first with the loose pestle and followed by the tight pestle. The homogenized tissue was placed in a pre-chilled 15 ml conical tube and centrifuged at 900×g (4° C.) for 10 minutes (min). The supernatant was removed, placed in a new tube and centrifuged again at 900×g for 10 min. The supernatant was then transferred to 2 mL microcentrifuge tubes and centrifuged at 10,000×g (4° C.) for 10 min. The mitochondrial pellets were re-suspended in ice cold HES buffer and mitochondrial protein was measured with a BCA assay (Pierce). The concentrated mitochondrial pellet was stored on ice.
Heart mitochondria (0.75-1.5 μg) were loaded into a Seahorse XF96 microplate in 20 μL of MAS (70 mM Sucrose, 220 mM Mannitol, 5 mM KH2PO4, 5 mM MgCl2, 1 mM EGTA, 2 mM HEPES; pH 7.2) plus 1% free fatty acid BSA containing substrates. The loaded plate was centrifuged at 2,000×g for 5 min at 4° C. (no brake) and an additional 130 μL of MAS was added to each well. When assessing compounds effect on respirometry, the compounds were added at this point at the indicated concentration in MAS buffer. To avoid disrupting mitochondrial adherence to the bottom of the plate, MAS was added using a multichannel pipette pointed at a 45° angle to the top of the well-chamber, as instructed by the manufacturer. Substrate concentrations in the well when assay was starting in state 4 were as follow: (i) 5 mM pyruvate+5 mM malate or ii) 5 mM succinate+2 μM rotenone. Substrate concentrations in the well when assay was starting in state 3 were as follow: (i) 5 mM pyruvate+5 mM malate+4 mM ADP or ii) 5 mM succinate+2 μM rotenone+4 mM ADP. Injections were performed as indicated in the figure descriptions at the following final concentration in the well: oligomycin (3.5 μM), FCCP (4 μM), Antimycin A (2 μM). Compounds were added at the indicated concentration.
ATP hydrolysis capacity or state 4 acidification was measured using Seahorse XF96 as described in Divakaruni et al. (2018) Anal Biochem 552:60-65 and Acin-Perez et al. (2021) Life 11(9):949, in MAS (70 mM Sucrose, 220 mM Mannitol, 5 mM KH2PO4, 5 mM MgCl2, 1 mM EGTA, 2 mM HEPES; pH 7.2). Plates were loaded with 0.75-1.5 μg of mouse heart mitochondria, or 25 μg of cell lysate. Cell lysates were prepared by subjecting the samples to 4 cycles of free thaw (liquid nitrogen—37° C. water bath) before measuring protein concentration. When assessing compounds effect on respirometry, the compounds were added in MAS after sample centrifugation. Initial respiration of the samples was sustained by the addition of 5 mM succinate+2 μM rotenone in the MAS after centrifugation. Injections were performed at the following final concentration in the well: Antimycin A (2 μM), oligomycin (5 μM), FCCP (1 μM), ATP (20 mM). To assess maximal ATP concentration, ATP was injected consecutively. […]

Row | SMILES | changes in ATP hydrolysis | change in hydrolysis (fresh mitochondria, Complex I) | decrease in hydrolysis (fresh mitochondria, Complex II) | decrease in hydrolysis (mitochondria preparation and substrate not given)
1 | Oc1ccc2c(c1)OC(c1ccc(O)c(C(F)(F)F)c1)C(O)C2 (single isomer, unassigned) [Compound 77b, 2-(4-hydroxy-3-(trifluoromethyl)phenyl)chromane-3,7-diol] | very mild changes | no clear change | 20% | 
2 | COc1cc(C2Oc3ccccc3CC2O)ccc1F (single isomer, unassigned) [Compound 75b, 2-(4-fluoro-3-methoxyphenyl)chroman-3-ol] | very mild changes |  |  | 
3 | Oc1cc(O)c2c(c1)O[C@H](c1ccc(O)c(O)c1)[C@H](O)C2 [Epicatechin, (+)Epicatechin, reference compound] |  |  |  | 10-25%
